According to ChEMBL document CHEMBL3046961, “Fungicidal activity of 12-propoxyimino-1, 15-pentadecanlactam on selected crops” (Crop Prot, 2009):

Tests used:
Botrytis cinerea [1] = assay: Antifungal activity against Botryotinia fuckeliana in cucumber plant at 281 g/ha treated 2 times in 6 days interval measured after 7 days last treatment relative to control; type: functional
Oryctolagus cuniculus [2] = organism: Oryctolagus cuniculus; assay: Toxicity in Oryctolagus cuniculus (rabbit) assessed as skin irritation; type: organism-based; conditions: in vivo
[3] = Acute dermal toxicity in Rattus norvegicus (rat); type: organism-based, Skin of body; conditions: in vivo, topical or ocular
Oryctolagus cuniculus [4] = organism: Oryctolagus cuniculus; assay: Toxicity in Oryctolagus cuniculus (rabbit) assessed as eye irritation; type: organism-based; conditions: in vivo
[5] = Biodistribution in Gossypium hirsutum (cotton) plant leaf at 500 mg/L after 48 hr; type: ADME, organism-based; conditions: read-out: Drug uptake
[6] = Acute oral toxicity in Rattus norvegicus (rat); type: organism-based; conditions: in vivo
[7] = Biodistribution in Gossypium hirsutum (cotton) plant leaf at 500 mg/L after 36 hr; type: ADME, organism-based; conditions: read-out: Drug uptake
[8] = Biodistribution in Gossypium hirsutum (cotton) plant leaf at 500 mg/L after 16 hr; type: ADME, organism-based; conditions: read-out: Drug uptake
[9] = Biodistribution in Gossypium hirsutum (cotton) plant leaf at 500 mg/L after 24 hr; type: ADME, organism-based; conditions: read-out: Drug uptake
[10] = Biodistribution in Gossypium hirsutum (cotton) plant leaf at 500 mg/L after 8 hr; type: ADME, organism-based; conditions: read-out: Drug uptake
[11] = Biodistribution in Gossypium hirsutum (cotton) plant stem at 500 mg/L after 48 hr; type: ADME, organism-based; conditions: read-out: Drug uptake
[12] = Biodistribution in Gossypium hirsutum (cotton) plant leaf at 500 mg/L after 4 hr; type: ADME, organism-based; conditions: read-out: Drug uptake
[13] = Biodistribution in Gossypium hirsutum (cotton) plant stem at 500 mg/L after 24 hr; type: ADME, organism-based; conditions: read-out: Drug uptake
[14] = Biodistribution in Gossypium hirsutum (cotton) plant stem at 500 mg/L after 36 hr; type: ADME, organism-based; conditions: read-out: Drug uptake
[15] = Biodistribution in Gossypium hirsutum (cotton) plant stem at 500 mg/L after 16 hr; type: ADME, organism-based; conditions: read-out: Drug uptake
[16] = Biodistribution in Gossypium hirsutum (cotton) plant stem at 500 mg/L after 8 hr; type: ADME, organism-based; conditions: read-out: Drug uptake
[17] = Biodistribution in Gossypium hirsutum (cotton) plant stem at 500 mg/L after 4 hr; type: ADME, organism-based; conditions: read-out: Drug uptake
[18] = Biodistribution in Gossypium hirsutum (cotton) plant root at 500 mg/L after 48 hr; type: ADME, organism-based; conditions: read-out: Drug uptake
[19] = Biodistribution in Gossypium hirsutum (cotton) plant root at 500 mg/L after 36 hr; type: ADME, organism-based; conditions: read-out: Drug uptake
[20] = Biodistribution in Gossypium hirsutum (cotton) plant root at 500 mg/L after 24 hr; type: ADME, organism-based; conditions: read-out: Drug uptake
[21] = Biodistribution in Gossypium hirsutum (cotton) plant root at 500 mg/L after 16 hr; type: ADME, organism-based; conditions: read-out: Drug uptake
[22] = Biodistribution in Gossypium hirsutum (cotton) plant root at 500 mg/L after 8 hr; type: ADME, organism-based; conditions: read-out: Drug uptake
[23] = Biodistribution in Gossypium hirsutum (cotton) plant root at 500 mg/L after 4 hr; type: ADME, organism-based; conditions: read-out: Drug uptake
Botrytis cinerea [24] = assay: Antifungal activity against Botryotinia fuckeliana in cucumber plant at 450 g/ha treated 2 times in 6 days interval measured after 7 days last treatment relative to control; type: functional
Botrytis cinerea [25] = assay: Antifungal activity against Botryotinia fuckeliana in seven to eight-leaf stage of tomato plant at 504 g/ha treated 24 hr before inoculation measured after 5 days relative to control; type: functional
Botrytis cinerea [26] = assay: Antifungal activity against Botryotinia fuckeliana in seven to eight-leaf stage of tomato plant at 315 g/ha treated 24 hr before inoculation measured after 5 days relative to control; type: functional
Botrytis cinerea [27] = assay: Antifungal activity against Botryotinia fuckeliana in seven to eight-leaf stage of tomato plant at 168 g/ha treated 24 hr before inoculation measured after 5 days relative to control; type: functional
Rhizoctonia solani [28] = assay: Antifungal activity against Rhizoctonia solani in five-leaf stage of cucumber growing soil at 504 g/ha treated 48 hr before inoculation measured after 6 days relative to control by pot culture test; type: functional
Rhizoctonia solani [29] = assay: Antifungal activity against Rhizoctonia solani in five-leaf stage of cucumber growing soil at 315 g/ha treated 48 hr before inoculation measured after 6 days relative to control by pot culture test; type: functional
Rhizoctonia solani [30] = assay: Antifungal activity against Rhizoctonia solani in five-leaf stage of cucumber growing soil at 168 g/ha treated 48 hr before inoculation measured after 6 days relative to control by pot culture test; type: functional
Botrytis cinerea [31] = assay: Antifungal activity against Botryotinia fuckeliana in seven to eight-leaf stage of tomato plant at 563 g/ha treated 24 hr before inoculation measured after 5 days relative to control; type: functional
Rhizoctonia solani [32] = assay: Antifungal activity against Rhizoctonia solani in five-leaf stage of cucumber growing soil at 450 g/ha treated 48 hr before inoculation measured after 6 days relative to control by pot culture test; type: functional

## CCCON=C1CCCCCCCCCCC(=O)NCCC1
Botrytis cinerea [1]
  Activity: 89.51%
Oryctolagus cuniculus [2]
  LD50: Non-toxic
[3]
  LD50: > 2000 mg/kg
Oryctolagus cuniculus [4]
  LD50: Toxic
[5]
  concentration at 48 h: 2530 ng/g
[6]
  LD50: > 5000 mg/kg
[7]
  concentration at 36 h: 2930 ng/g
[8]
  concentration at 16 h: 330 ng/g
[9]
  concentration at 24 h: 890 ng/g
[10]
  concentration at 8 h: 110 ng/g
[11]
  concentration at 48 h: 5120 ng/g
[12]
  concentration at 4 h: 40 ng/g
[13]
  concentration at 24 h: 4270 ng/g
[14]
  concentration at 36 h: 8950 ng/g
[15]
  concentration at 16 h: 2710 ng/g
[16]
  concentration at 8 h: 870 ng/g
[17]
  concentration at 4 h: 190 ng/g
[18]
  concentration at 48 h: 137000 ng/g
[19]
  concentration at 36 h: 116000 ng/g
[20]
  concentration at 24 h: 98000 ng/g
[21]
  concentration at 16 h: 97000 ng/g
[22]
  concentration at 8 h: 66700 ng/g
[23]
  concentration at 4 h: 54400 ng/g
Botrytis cinerea [24]
  Activity: 95.14%
Botrytis cinerea [25]
  Activity: 87.51%
Botrytis cinerea [26]
  Activity: 85.82%
Botrytis cinerea [27]
  Activity: 80.67%
Rhizoctonia solani [28]
  Activity: 73.59%
Rhizoctonia solani [29]
  Activity: 53.46%
Rhizoctonia solani [30]
  Activity: 38.99%

## CC(C)NC(=O)N1CC(=O)N(c2cc(Cl)cc(Cl)c2)C1=O [IPRODIONE]
Botrytis cinerea [31]
  Activity: 90.39%

## CN(C)C(=S)SSC(=S)N(C)C [THIRAM]
Rhizoctonia solani [32]
  Activity: 42.14%
